Results published in PMC2841147, “The inhaled phosphodiesterase 4 inhibitor GSK256066 reduces allergen challenge responses in asthma” (Respiratory Research, 2010).
Read-outs that look alike come from different tables or passages of the source. One block for each compound: values may come before it.

Key:
[1] = tested on: steroid naive atopic asthmatics; experiment: Inhaled allergen challenge (EAR and LAR) after 7 days treatment; type: in vivo, human; details: inhaled 87.5 μg once daily for 7 days
Description: (§1) This was a two centre, double-blind, randomised, placebo controlled, cross-over study. Eligible subjects were randomised to receive GSK256066 87.5 μg or matching placebo using an Accuhaler™ once daily for 7 days - see Fig 1. The washout period was 14 - 21 days between treatment periods. Dosing was performed under supervision at the sites on Day 1 and Day 7. On days 2-6 subjects were instructed to take the study medication at the same time of day, and were required to complete a diary card to document the time that medication was taken. Heart rate, blood pressure, ECGs, FEV1 and exhaled nitric oxide (FeNO) were measured pre-dose on days 1 and 7, and at 1 hr post-dose. On day 7, an inhaled allergen challenge was subsequently performed after the 1 hour post-dose FEV1 and FeNO measurements. Methacholine challenge was then performed at 24 hours post allergen challenge. Adverse events and beta agonist use were monitored throughout the study with the aid of diary cards.
Bronchial challenges were performed as we have previously described using a Mefar Dosimeter (Mefar-Bologna). Allergen for skin prick tests (Soluprick SQ, Alk Abelló (UK) Ltd) was stored at 4°C; each subject was assessed for sensitivity to house dust mite, cat, grass pollen, and positive and negative controls. The allergen for inhalation was selected according to the largest skin test wheal (positive >3 mm) and clinical history. Fresh solutions of allergen were made up in 0.9% saline in doubling concentrations from 250 SQ-U/ml to 32 000 SQ-U/ml. At screening, incremental doses of allergen were inhaled until an early asthmatic response (EAR) was observed, defined as a fall in FEV1 of ≥ 20% from the post saline value, on at least one occasion, between 5 and 30 minutes after the final concentration of allergen. The late asthmatic response (LAR) was defined as a fall in FEV1 of ≥ 15% from the post saline value, on at least three occasions, two of which must be consecutive, between 4 and 10 hours after the final concentration of allergen. During the treatment periods, the total dose of allergen required to cause an EAR and LAR was administered as a single bolus dose.
Minimum LAR was derived as the minimum FEV1 value over 4-10 hrs post allergen challenge. Minimum EAR was derived as the minimum FEV1 over 0-2 hrs post allergen challenge. Weighted mean LAR and EAR endpoints were derived by calculating the AUC over the relevant time interval using the linear trapezoidal rule and dividing by the time interval. […] Day 7 FEV1 data (pre-dose and 1 h post-dose) were also analysed using a mixed effects model, adjusting for the fixed effects treatment, period and Day 1 pre-dose FEV1 and the random effect subject. […]

[2] = tested on: steroid naive atopic asthmatics; experiment: Methacholine challenge 24 hours post allergen challenge; type: in vivo, human
Description: as §1, with “cards. […]” for “cards.”
Minimum LAR was derived as the minimum FEV1 value over 4-10 hrs post allergen challenge. […] Day 7 FEV1 data (pre-dose and 1 h post-dose) were also analysed using a mixed effects model, adjusting for the fixed effects treatment, period and Day 1 pre-dose FEV1 and the random effect subject. […] FeNO change from baseline ratio at all time points were analysed following a loge-transformation to compare GSK256066 with placebo. […]

[3] = tested on: steroid naive atopic asthmatics; experiment: Lung function (FEV1) pre-dose and 1 hr post-dose; type: in vivo, human; details: for FEV1: mean; for FEV1 adjusted treatment difference GSK256066 vs placebo: adjusted mean (95% confidence intervals)
Description: as §1
(§2) Minimum LAR was derived as the minimum FEV1 value over 4-10 hrs post allergen challenge. Minimum EAR was derived as the minimum FEV1 over 0-2 hrs post allergen challenge. Weighted mean LAR and EAR endpoints were derived by calculating the AUC over the relevant time interval using the linear trapezoidal rule and dividing by the time interval. The sample size was based on a power calculation using our previous allergen challenge data; in order to detect a 50% attenuation of the minimum LAR, with 90% power at the two-sided 5% significance level, 23 evaluable were required. Statistical analysis was performed on each of the absolute change from baseline LAR and EAR endpoints to compare GSK256066 with placebo. A mixed effects model was fitted with the factors treatment, period and Day 7 post-saline FEV1 as fixed effects and subject as a random effect. Absolute change from post-saline FEV1 data over planned relative time were obtained from a repeated measures statistical analysis, adjusting for the terms of period, treatment group, period-level post-saline baseline, subject-level post-saline baseline, planned relative time, treatment group by planned relative time interaction and period-level post-saline baseline by planned relative time interaction as fixed effects and subject as a random effect. Day 7 FEV1 data (pre-dose and 1 h post-dose) were also analysed using a mixed effects model, adjusting for the fixed effects treatment, period and Day 1 pre-dose FEV1 and the random effect subject. Statistical analysis was performed on the log2-transformed values of the provocative concentration of methacholine required to produce a 20% reduction in FEV1 (PC20) to compare GSK256066 with placebo. A mixed effects model was fitted with the factors treatment and period treated as fixed effects and subject as a random effect. FeNO change from baseline ratio at all time points were analysed following a loge-transformation to compare GSK256066 with placebo. A mixed effects model was fitted with the fixed effects period, treatment group, subject-level loge-transformed baseline, period-level loge-transformed baseline, planned relative time, treatment group by planned relative time interaction term and period-level loge-transformed baseline by planned relative time interaction term and the random effect subject.

[4] = tested on: steroid naive atopic asthmatics; experiment: Exhaled nitric oxide (FeNO); type: in vivo, human; details: for Exhaled nitric oxide: mean
Description: as §1
FeNO was measured using the Ecomedics AG analyser CLD 88 at a flow of 50 ml/s. Three acceptable readings were recorded from each subject and the mean was used for analysis.
as §2, with “Statistical analysis was performed on the log2-transformed values of the provocative concentration of methacholine required to produce a 20% reduction in FEV1 (PC20) to compare GSK256066 with placebo. A mixed effects model was fitted with the factors treatment and period treated as fixed effects and subject as a random effect.” left out, “A mixed effects model was fitted with the fixed effects period, treatment group, subject-level loge-transformed baseline, period-level loge-transformed baseline, planned relative time, treatment group by planned relative time interaction term and period-level loge-transformed baseline by planned relative time interaction term and the random effect subject.” left out

[5] = Plasma pharmacokinetics after inhalation (HPLC/MS/MS); type: in vivo, human; details: for Tlast / Tmax: median (range); for AUC(0-t): 87.5 ug
Description: On days 1 and 7, blood samples were collected at pre-dose, 10 min, 30 min, 45 min and 1, 2, 3, 4, 6, 8, 10, 11, 12 and 24 hrs post dose for measurement of the levels of GSK256066 in plasma. […] These pharmacokinetic analyses were performed by protein precipitation, followed by HPLC/MS/MS. The lower limit of quantification (LLOQ) for GSK256066 and GSK614917 was 5 pg/mL, with an upper limit of quantification of 2000 pg/mL
Values for the following pharmacokinetic were estimated directly from raw plasma concentration data: maximum plasma concentration (Cmax), time of maximum observed concentration (Tmax), and time of the last observable concentration (Tlast). Area under the plasma concentration-time curve from time zero to Tlast (AUC (0-t)) was estimated for subjects with at least 3 consecutive observable concentration values with the log up/linear down trapezoidal method using Winnonlin professional version 5.2 (Pharsight Corporation, Cary, NC, USA).

[6] = tested on: steroid naive atopic asthmatics; experiment: Safety and tolerability (adverse events); type: in vivo, human; details: inhaled 87.5 mcg once per day for 7 days
Description: as §1

PDE4 = details: cited from earlier work
patients with COPD = tested on: patients with COPD; design: method as in PMID 19213793; details: inhaled, after 6 weeks of treatment; cited from earlier work
[7] = design: method as in PMID 17192499; details: cited from earlier work
asthmatic subjects = tested on: asthmatic subjects; design: method as in PMID 16083782; details: orally administered; cited from earlier work

Subjects with plasma concentrations above the LLOQ ([5]; Day 1, LLOQ 5 pg/mL): 18 out of 22
Cmax ([5]; Day 1, inhaled 87.5 μg, plasma, geometric mean (CV%), N = 18): 18.3 (68) Pg/mL
Tlast ([5]; Day 1): 3.0 (0.5-6.0) h
Subjects with drug levels below the LLOQ after 4 hrs post dose ([5]; Day 1, of the 22 subjects, LLOQ 5 pg/mL): 18 subjects
Subjects with drug levels below the LLOQ after 4 hrs post dose ([5]; Day 7, LLOQ 5 pg/mL): 10 of the 19
Subjects with levels above the LLOQ after 12 hrs ([5]; Day 7, LLOQ 5 pg/mL): 1 subject
Subjects with plasma concentrations above the LLOQ ([5]; Day 7, LLOQ 5 pg/mL): 17 out of 19
Cmax ([5]; Day 7, inhaled 87.5 μg once daily, plasma, geometric mean (CV%), n = 17): 17.3 (63) Pg/mL
Tlast ([5]; Day 7): 4.0 (1.0-24) h
Tmax ([5]; Day 7): 1.0 (0.17-11.0) h
Tlast range in this study ([5]; days 1 and 7): 0.5 to 24 h
AUC(0-t) ([5]; human, plasma, inhaled or intranasal, Day 1, inhaled 87.5 μg, plasma, geometric mean (CV%), N = 18): 0.0368 ng·h/mL
AUC(0-t) ([5]; human, plasma, inhaled or intranasal, Day 7, inhaled 87.5 μg once daily, plasma, geometric mean (CV%), n = 17): 0.0648 ng·h/mL
Cmax ([5]; human, plasma, inhaled or intranasal, 87.5 μg, on both days 1 and 7, inhaled, read-out: Mean Cmax): < 0.02 ng/mL
Tmax ([5]; human, plasma, inhaled, 87.5 μg, Day 1, read-out: Tmax): 1 h
Compound: COc1cccc(Nc2c(C(N)=O)cnc3c(C)cc(S(=O)(=O)c4cccc(C(=O)N(C)C)c4)cc23)c1 [GSK256066]
EAR: inhibition of the fall in weighted mean FEV1 compared to placebo ([1]; 0-2 hrs post allergen, p = 0.014): 57.2%
LAR: attenuation of the fall in weighted mean FEV1 compared to placebo ([1]; 4-10 hrs post allergen, p = 0.005): 34.3%
EAR: inhibition of the fall in minimum FEV1 compared to placebo ([1]; minimum FEV1 0-2 hrs post allergen, p = 0.014): 40.9%
LAR: attenuation of the fall in minimum FEV1 compared to placebo ([1]; minimum FEV1 4-10 hrs post allergen, p = 0.007): 26.2%
Methacholine PC20 doubling dose difference vs placebo, geometric mean (95% CI) [2]: -0.31 (-1.18 to 0.57)
Methacholine PC20 ([2]; after 7 days treatment, placebo 0.39): 0.31 mg/mL
FEV1 ([3]; Day 1 Pre-dose): 3.29 (2.88 to 3.69) L
FEV1 adjusted treatment difference GSK256066 vs placebo ([3]; Day 7 1 hr post-dose): 0.09 (-0.08 to 0.27) L
FEV1 ([3]; Day 7 1 hr post-dose): 3.47 (3.04 to 3.90) L
FEV1 adjusted treatment difference GSK256066 vs placebo ([3]; Day 7 Pre-dose): 0.09 (-0.03 to 0.20) L
FEV1 ([3]; Day 7 Pre-dose): 3.36 (2.94 to 3.79) L
Exhaled nitric oxide ([4]; Day 1 Pre-dose): 39.9 (31.0 to 51.3) ppb
Exhaled nitric oxide adjusted treatment ratio GSK256066 vs placebo ([4]; Day 7 1 hr post-dose, adjusted mean (95% confidence intervals)): 1.03 (0.88 to 1.20)
Exhaled nitric oxide ([4]; Day 7 1 hr post-dose): 36.1 (28.1 to 46.3) ppb
Exhaled nitric oxide ([4]; Day 7 Pre-dose): 34.7 (26.7 to 45.0) ppb
Nausea and/or gastro-intestinal side effects [6]: lack of nausea and/or gastro-intestinal side effects
Tolerability / adverse effects [6]: well tolerated
Affinity and binding mode at PDE4 (PDE4): very high affinity, slow- and tight-binding inhibitor
Selectivity for PDE4 over other PDEs such as 1, 2, 3, 5, 6 and 7 (PDE4): highly selective

Compound: Cc1ccc(O)c(C(=O)N[C@H]2CC[C@@H](NC(=O)c3cc(F)cnc3Oc3ccc(F)c(F)c3)CC2)c1 [UK-500,001]
Effect on FEV1 (patients with COPD): no effect

Compound: O=C(Nc1c(Cl)c[n+]([O-])cc1Cl)c1ccc(OC(F)F)c(OCC2CC2)c1 [roflumilast N-Oxide]
Plasma levels of the active metabolite compared with roflumilast Cmax ([7]; after oral roflumilast): even higher

Compound: O=C(Nc1c(Cl)cncc1Cl)c1ccc(OC(F)F)c(OCC2CC2)c1 [roflumilast]
Inhibition of the maximal fall in the EAR (asthmatic subjects): 14%
Inhibition of the maximal fall in the LAR (asthmatic subjects): 33%
Mean Cmax ([7]; administered orally): over 2,000 pg/ml
